These results are taken from US20100056948A1, “Stimulation of Satiety Hormone Release” (priority 2008, published 2010).

Test [1] has as its system segments of duodenum, jejunum ileum, colon, esophagus, stomach. Nature of the test: GLP-1 release from segments of the entire GI tract incubated in linoleic acid. It is filed as cell-based, rat. The following applies: LA 3 mg/mL, 45 minutes (FIG. 2).
Test [2] deals with rat distal ileum (L-cells). The test can be described thus: GLP-1 release from isolated rat distal ileum segments into the bathing medium (active GLP-1 ELISA), with or without electrical field stimulation. It is filed as cell-based. The following applies: for GLP-1 release, LA alone (mean ± SEM): LA 3 mg/mL 45 min, no E-stim. How it is done: (§1) Female Sprague-Dawley rats, 8-12 weeks weighing 250-300 g were euthanized by CO2 and at least 17 cm of distal ileum was immediately dissected starting at the ileocecal junction. Intraluminal contents were flushed with warm modified Krebs Ringers bicarbonate (KRB) buffer and intestines placed into 50 mL tubes containing oxygenated, cold KRB buffer. Intact segments (1.5 cm) of rat distal ileum were oriented longitudinally, with the oral end fixed in the organ chamber between bipolar stimulating electrodes and the aboral end attached to a solid-state force transducer and submerged in a 10 ml-chamber containing KRB at 37° C. and constantly aerated with 95% O2/5% CO2 (FIG. 1). […] The entire assembly was placed into 37° C. KRB buffer in jacketed 10 mL myobath chambers. The length of each segment was adjusted to an initial resting tension of 1 g and maintained at 37° C. in a KRB buffer or KRB containing linoleic acid (LA, 3 mg/mL) and a dipeptidyl peptidase-4 inhibitor (to prevent proteolysis of GLP-1). Contractile activity was digitized and data acquired for off line analysis using PowerLab hardware and Chart software (ADInstruments, Colorado Springs, Colo.). In separate experiments, segments were incubated in KRB or KRB+LA in the presence or absence of electrical field stimulation continuously for 45 min. Samples of the bathing solutions taken at 45 min and mucosal epithelial scrapings were stored frozen (minus 80° C.).
Active GLP-1 concentration in thawed aliquots was measured by fluorescence on a plate reader using an ELISA (Linco Research, St. Charles, Mo.) with a detection range of 2-100 pM. This method measures both biologically active forms of GLP-1, that is GLP-1(7-36) and (GLP-1(7-36)) amide, that are currently known to be released by the intestinal mucosa. Measurements of GLP-1 were normalized to concentration in 10 mL volume and reported as pM. The mean and SEM GLP-1 release was calculated for each treatment. For each electrical stimulation condition (+/−LA) there were 2-6 rats with 2-4 segments of tissue per rat per condition.
Statistical analysis was performed that included all conditions (with condition defined by the combination of frequency, voltage and duration of the electrical stimulation) and included a term for condition, treatment (LA alone or LA plus electrical stimulation) as a repeated factor, and the interaction between the two. Treatment is a within-subject effect, allowing each subject's LA alone response to serve as the control for that subject's response with electrical stimulation from the same study day. GLP-1 release was analyzed by repeated measures analyses of variance (ANOVA) on all eleven conditions with LA alone or LA plus electrical stimulation as a repeated factor. The mean and SEM reported in the tables below are based on 2-6 rats per condition with data from two replicates of each electrical stimulation condition averaged per rat. The P values are reported based on repeated measures analyses of variance (ANOVA) for each analysis and for the pairwise comparisons. The data were log-transformed prior to analyses to better satisfy the underlying statistical modeling assumptions of equal variability and sampling from populations with normal distributions.

A further test deals with isolated ileum. The test can be described thus: Muscle tone of isolated ileum (force transducer). It counts as cell-based, rat. The following applies: for Change in muscle tone of isolated ileum after 40 min compared to KRB buffer: P<0.05 by ANOVA. On the procedure: as §1
Muscle tone and contractile amplitude (calculated as the average cyclic minimum and maximum, respectively) were determined for 5 min periods, pre- (˜5 min before) and post-treatment (40 min after start). The tone and amplitude at −5 and +40 minutes for each condition was compared to that condition's baseline by one-way ANOVA.

Take `CCCCC/C=C\C/C=C\CCCCCCCC(=O)O` [LA, linoleic acid]: the “GLP-1 concentration in the bathing medium” value in test [1] (segments of duodenum, jejunum ileum and colon) is on record as “increased”; in test [1] (segments of esophagus or stomach), “not”. Besides, the “GLP-1 release, LA alone (mean ± SEM)” value in test [2] (paired control for 0.15 Hz 0.7 V 300 ms) worked out at 17.9 ± 4.1 pM; in test [2] (paired control for 0.15 Hz 2 V 5 ms) it was 12.1 ± 4.0 pM; in test [2] (paired control for 0.15 Hz 5 V 5 ms), 17.6 ± 5.9 pM; in test [2] (paired control for 0.15 Hz 10 V 5 ms), 19.5 ± 9.0 pM; in test [2] (paired control for 0.15 Hz 20 V 5 ms), 12.5 ± 1.7 pM; in test [2] (paired control for 0.4 Hz 14 V 5 ms), 11.0 ± 2.8 pM. The “GLP-1 release, LA alone (mean ± SEM)” value is recorded as 12.7 ± 2.4 pM in test [2] (paired control for 0.4 Hz 14 V 300 ms); 8.6 ± 1.8 pM in test [2] (paired control for 4 Hz 14 V 5 ms); 14.4 ± 5.9 pM in test [2] (paired control for 20 Hz 14 V 5 ms); 10.2 ± 2.1 pM in test [2] (paired control for 40 Hz 14 V 5 ms); 20.6 ± 3.4 pM in test [2] (paired control for 80 Hz 14 V 5 ms). Besides, the “GLP-1 release, LA + E-stim (mean ± SEM)” value in test [2] (LA 3 mg/mL 45 min plus electrical stimulation 0.15 Hz 0.7 V 300 ms, p 0.257 vs LA alone) is on record as 22.1 ± 4.2 pM; in test [2] (LA 3 mg/mL 45 min plus electrical stimulation 0.15 Hz 2 V 5 ms, p 0.948 vs LA alone), 11.1 ± 1.0 pM; in test [2] (LA 3 mg/mL 45 min plus electrical stimulation 0.15 Hz 5 V 5 ms, p 0.344 vs LA alone), 22.6 ± 9.4 pM; in test [2] (LA 3 mg/mL 45 min plus electrical stimulation 0.15 Hz 10 V 5 ms, p 0.311 vs LA alone) it was 29.4 ± 6.6 pM; in test [2] (LA 3 mg/mL 45 min plus electrical stimulation 0.15 Hz 20 V 5 ms, p 0.212 vs LA alone), 16.5 ± 3.7 pM; in test [2] (LA 3 mg/mL 45 min plus electrical stimulation 0.4 Hz 14 V 5 ms, p 0.761 vs LA alone), 10.4 ± 1.8 pM. Besides, the “GLP-1 release, LA + E-stim (mean ± SEM)” value was 31.3 ± 5.9 pM in test [2] (LA 3 mg/mL 45 min plus electrical stimulation 0.4 Hz 14 V 300 ms, p 0.056 vs LA alone); 9.1 ± 1.4 pM in test [2] (LA 3 mg/mL 45 min plus electrical stimulation 4 Hz 14 V 5 ms, p 0.838 vs LA alone); 32.6 ± 12.2 pM in test [2] (LA 3 mg/mL 45 min plus electrical stimulation 20 Hz 14 V 5 ms, p 0.152 vs LA alone); 38.1 ± 11.1 pM in test [2] (LA 3 mg/mL 45 min plus electrical stimulation 40 Hz 14 V 5 ms, p 0.016 vs LA alone); 33.7 ± 12.4 pM in test [2] (LA 3 mg/mL 45 min plus electrical stimulation 80 Hz 14 V 5 ms, p 0.391, includes one result designated 100 pM (upper level of detection, actual 178 pM)). Moreover, in test [2] (TTX 0.5 μM concurrently with linoleic acid for 45 min (FIG. 7)), the “LA-evoked increase of GLP-1 in the presence of TTX” value is reported as “persisted”. Besides, the “GLP-1 released after 45 mins incubation in LA” value in test [2] (compiled data from 51 distal ileum segments, LA 3 mg/mL, mean ± SEM, KRB buffer alone 3.6 pM) was 21.9 ± 2.6 pM. Further, the “Enhancement of GLP-1 released during incubation with nutrient stimulus by E-stim compared to LA alone” value in test [2] (four electrical stimulation conditions with total charge 1400, 1680, 2800 and 5600 μC) is 150-300%. Besides, the “Increase of GLP-1 release by electrical stimulation together with LA over that evoked by LA alone” value in test [2] (in the presence of TTX 0.5 μM, E-stim 14V 0.4 Hz 300 ms, 45 min) is recorded as 239±64%. For the same compound, the “LA concentration giving maximal GLP-1 response” value in test [2] (tissue incubated in 1, 3 and 10 mg/mL LA, data not shown) came out at 3 mg/mL. Moreover, in test [2] (two segments of ileum incubated in 3 mg/ml LA (FIG. 4)), the “GLP-1 concentration over time” value is “increased over time”. Besides, the “Change in muscle tone of isolated ileum after 40 min compared to KRB buffer” value in the test with isolated ileum (LA combined with E-stim 14V 40 Hz 5 ms) and in the test on isolated ileum (LA combined with E-stim 14 V 80 Hz 5 ms) was “significant reduction” throughout. Further, the “Muscle tone of isolated ileum compared to KRB buffer alone” value in the test on isolated ileum (LA with E-stim 14V 0.4 Hz 300 ms) and in the test on isolated ileum (LA with E-stim 14V 20 Hz 5 ms) was “not different” in each case. The “Change in muscle tone of isolated ileum after 40 min” value in the test with isolated ileum (incubation in LA alone (FIG. 9)) was “tended to decrease”.

As to `NC1=N[C@H](O)[C@H]2[C@H]3O[C@]4(O)O[C@@H]([C@@H](O)[C@@]2(N1)[C@@H]4O)[C@]3(O)CO` [TTX, tetrodotoxin], in test [2], the “Effect of TTX alone on GLP-1 release” value is recorded as “no effect” and the “Effect of tetrodotoxin on the two-fold increase in GLP-1 evoked by direct electrical stimulation of ileal tissue” value is “did not prevent”.
